Holding throughout (assay): NCI tumour cell line growth inhibition, 48 h
The test system of assay [1] is A498.
Assay [2] concerns A549.
For assay [3], the system named is COLO 205.
The test system of assay [4] is HCC 2998.
In assay [5] the test system is HOP-62.
The test system of assay [6] is K562.
Assay [7] concerns NCI-H226.
For assay [8], the system named is NCI-H23.
Assay [9] relates to OVCAR-4.
In assay [10] the test system is OVCAR-8.
Assay [11] concerns SF-268.
The subject of assay [12] is SF-539.
The subject of assay [13] is SK-MEL-5.
For assay [14], the system named is SNB-75.
In assay [15] the test system is SW-620.
Assay [16] concerns HCT-116.
Assay [17] deals with UACC-62.

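Method: 48-hour compound exposure of cells in 96-well plates, five concentrations, linear interpolation of endpoints. Here, GI50 denotes the concentration required for 50% inhibition of growth.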 The source made the active and inactive calls. Cut-off read from the data, not from the text of the source: active = GI50 up to about 1.1 µM and inactive = higher.

Consider 14 compounds from ChEMBL document CHEMBL1201862, “PubChem BioAssay data set” (2004).

With `CCc1cccc(C)c1NC(=O)C1=C(C)NC(C)=C(C(=O)Nc2c(C)cccc2CC)C1c1ccc([N+](=O)[O-])cc1`, the GI50 in [1] was 40.8 µM (inactive); in assay [2], 33.5 µM (inactive); in [3], 21.9 µM (inactive); in [4], 21.3 µM (inactive); in [5], 40.1 µM (inactive); in assay [6] it was 23.9 µM (inactive). The GI50 in assay [7] was 39.8 µM (inactive); in [8] it was 27.3 µM (inactive); in [9], 13.4 µM (inactive); in assay [10] it was 49.5 µM (inactive); in [11], 39.9 µM (inactive); in [12], > 100 µM (inactive). For the same compound, the GI50 is 34 µM (inactive) in assay [13], 3.98 µM (inactive) in assay [14] and 72.1 µM (inactive) in assay [15].

In the case of `O=c1[nH]c(=O)n([C@@H]2C[C@H](CO)[C@H](O)C2)cc1/C=C/Br`, the GI50 in [1], in assay [2], in assay [4], in [16], in [5] and in assay [6] was > 100 µM (inactive) each time. For the same compound, the GI50 in [7], in [8], in assay [9], in assay [10], in [11] and in assay [12] was > 100 µM (inactive) throughout. Besides, the GI50 in assay [13], in assay [14], in [15] and in [17] was > 100 µM (inactive) in each case.

`Cc1ccc(NC(=O)CC/C(CC(=O)C(C)(C)C)=N\Nc2ccc([N+](=O)[O-])cc2[N+](=O)[O-])cc1C`: the GI50 in assay [2] was 37.7 µM (inactive); in assay [3] it was > 100 µM (inactive); in assay [16] it was 50.5 µM (inactive); in assay [5] it was 0.0522 µM (active); in assay [6] it was 28.3 µM (inactive); in assay [7] it was > 100 µM (inactive). Further, the GI50 in assay [8] is 46.2 µM (inactive); in assay [10] it was 59.6 µM (inactive); in assay [11], > 100 µM (inactive); in assay [12], 59.4 µM (inactive); in assay [15] it was 46.3 µM (inactive); in assay [17] it was 32.2 µM (inactive).

Take `CCOc1ccc(/C(Cl)=C(\C=O)c2ccc(OC)c(OC)c2)cc1OCC`: the GI50 was 46.9 µM (inactive) in assay [2]; 61.5 µM (inactive) in assay [3]; 30 µM (inactive) in [4]; 33.8 µM (inactive) in [16]; 30.1 µM (inactive) in [5]; 23.5 µM (inactive) in assay [6]. The GI50 in assay [7] is 67.1 µM (inactive); in [8], 23.3 µM (inactive); in assay [9] it was 38.7 µM (inactive); in [10], 46.8 µM (inactive); in assay [11] it was 63.8 µM (inactive); in assay [12], 48.9 µM (inactive). Besides, the GI50 in assay [13] is 22.5 µM (inactive); in assay [14], 29.9 µM (inactive); in assay [15], 83.9 µM (inactive); in assay [17], 33 µM (inactive).

For `COc1cc(C2C(Cl)C(=O)N2NC(=O)Cc2ccccc2)ccc1O` (stereo not drawn), the GI50 was > 100 µM (inactive) in assay [2]; > 100 µM (inactive) in assay [3]; 57.5 µM (inactive) in assay [4]; 45.6 µM (inactive) in assay [16]; > 100 µM (inactive) in [5]; 35.2 µM (inactive) in [6]. Moreover, the GI50 in assay [7] was 55.6 µM (inactive); in assay [8], 45.1 µM (inactive); in [9], > 100 µM (inactive); in [10], > 100 µM (inactive); in assay [11], > 100 µM (inactive); in assay [13] it was 69.7 µM (inactive). In addition, the GI50 in assay [14] is 35.8 µM (inactive); in [15], 68.4 µM (inactive); in [17] it was 73.3 µM (inactive).

Regarding `N#CC(c1ccccn1)c1nc2ccccc2[nH]1` (stereo not drawn), the GI50 in assay [1] is > 100 µM (inactive); in assay [2], > 100 µM (inactive); in [3], > 100 µM (inactive); in [4], > 100 µM (inactive); in assay [16], 98.4 µM (inactive); in [5] it was > 100 µM (inactive). Moreover, the GI50 in [6] was > 100 µM (inactive); in assay [7], > 100 µM (inactive); in [8] it was > 100 µM (inactive); in assay [9] it was 81.1 µM (inactive); in [10] it was 84.5 µM (inactive); in assay [11], > 100 µM (inactive). Besides, the GI50 in [13] was > 100 µM (inactive); in assay [14] it was 49.3 µM (inactive); in assay [15] it was > 100 µM (inactive); in [17], 70.3 µM (inactive).

As for `OCC(O)C(OC1OC(CO)C(O)C(O)C1O)c1nn(-c2ccc(F)cc2)c2nc3cc(Cl)c(Cl)cc3cc12` (stereo not drawn), the GI50 in assay [1], in [4], in [16], in assay [5], in assay [6] and in assay [8] was > 100 µM (inactive) throughout. The GI50 in assay [9], in [10], in [11], in [12], in assay [14] and in assay [17] was > 100 µM (inactive) throughout.

Regarding `COc1ccc(/C=N/N=C(\N)NO)c(Cl)c1O`, the GI50 is 5.43 µM (inactive) in assay [2]; 33 µM (inactive) in [3]; 14.6 µM (inactive) in [4]; 15.2 µM (inactive) in [16]; 6.21 µM (inactive) in assay [5]; 3.63 µM (inactive) in assay [6]. For the same compound, the GI50 is 8.32 µM (inactive) in assay [7]; 23.7 µM (inactive) in assay [8]; 15.8 µM (inactive) in [9]; 12.2 µM (inactive) in [10]; 13.2 µM (inactive) in assay [11]; 12.2 µM (inactive) in [12]. The values for the GI50 in [13], in assay [15] and in assay [17] were 5.11 µM (inactive), 19.4 µM (inactive) and 12.9 µM (inactive), respectively.

`Cc1ccccc1NC(=O)/C=N/O`: the GI50 in [1], in assay [2], in assay [3], in [4], in [16] and in assay [5] was > 100 µM (inactive) each time. The GI50 in assay [6], in assay [7], in [8], in assay [9], in assay [10] and in assay [11] was > 100 µM (inactive) each time. Also, the GI50 in assay [13] is > 100 µM (inactive); in [14] it was > 100 µM (inactive); in [15], > 100 µM (inactive); in assay [17], 14.6 µM (inactive).

Regarding `COc1ccc(C(=O)Nc2ccc(S(=O)(=O)NCC(=O)O)cc2)cc1`, the GI50 in assay [1], in assay [2], in [3], in [4], in assay [6] and in assay [8] was > 100 µM (inactive) throughout. Also, the GI50 in assay [9], in assay [10], in assay [11], in assay [12], in assay [13] and in assay [14] was > 100 µM (inactive) in each case. Besides, the GI50 in [15] and in assay [17] was > 100 µM (inactive) in each case.

Turning to `COC1CCC(OS(C)(=O)=O)C(CO)O1` (stereo not drawn), the GI50 in [2], in assay [4], in [16], in [5], in assay [6] and in assay [8] was > 100 µM (inactive) throughout. Besides, the GI50 in assay [10] was > 100 µM (inactive); in [12], > 100 µM (inactive); in [13] it was > 10 µM (inactive); in [14], > 100 µM (inactive); in assay [15] it was > 100 µM (inactive); in assay [17] it was > 100 µM (inactive).

As to `O=C(N/C(=C\c1ccc([N+](=O)[O-])cc1)c1nc2cc(Cl)ccc2[nH]1)c1ccccc1`, the GI50 in assay [2] is 20.8 µM (inactive); in [4], 18 µM (inactive); in assay [6], 12.8 µM (inactive); in assay [8], 18.1 µM (inactive); in assay [9], 15.7 µM (inactive); in assay [10] it was 30.1 µM (inactive). Further, the GI50 in assay [11] was 18.4 µM (inactive); in assay [12] it was 19.1 µM (inactive); in assay [13], 17.6 µM (inactive); in [15], 19.5 µM (inactive); in [17] it was 18.7 µM (inactive).

Turning to `CCNC(=O)COc1ccc(Cl)cc1Cl`, the GI50 in assay [1], in assay [2], in assay [3], in [16], in assay [5] and in assay [6] was > 100 µM (inactive) each time. Besides, the GI50 in assay [7], in [8], in assay [10], in assay [11], in [12] and in [13] was > 100 µM (inactive) throughout. The GI50 in assay [14] and in [15] was > 100 µM (inactive) in each case.

For the compound `CS/C(=N\c1ccccc1Cl)NC(=O)c1ccc(Br)cc1`, the GI50 in [2] is 55.8 µM (inactive); in [3], > 100 µM (inactive); in assay [4], > 100 µM (inactive); in [16] it was > 100 µM (inactive); in assay [5] it was 21.3 µM (inactive); in assay [6] it was 14.9 µM (inactive). Besides, the GI50 in assay [7] was 41 µM (inactive); in assay [8], > 100 µM (inactive); in assay [9], 18.2 µM (inactive); in assay [10], > 100 µM (inactive); in [11], 59.8 µM (inactive); in assay [12] it was 37.2 µM (inactive). Also, the GI50 in [15] was > 100 µM (inactive); in assay [17], 28.4 µM (inactive).
